Drawing on patent US12378224B2 (Dong-A Socio Holdings Co., Ltd., priority 2016, dated 2025), this text covers IC50 for 22 compounds.

As usually defined, the IC50 is the concentration at which inhibition is half-maximal.

Assay [1] addresses human c-MER catalytic domain (Homo sapiens (Human), UniProt Q12866). Description: TR-FRET Kinase Activity Biochemical Assay (LanthaScreen). Conditions: 10 uM ATP, 1 hour, kinase not given. In short, it runs like this:
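Recombinant human c-MER catalytic domain phosphorylated fluorescein-labeled poly-GT substrate. The reaction was stopped with 10 mM EDTA, then 2 nM Tb-labeled anti-phosphotyrosine antibody was added for 30 min. Kinase activity was taken from the 495/520 nm TR-FRET emission ratio after 340 nm excitation.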
Background: Time-resolved FRET reads energy transfer from a long-lived donor to a nearby acceptor.

For assay [2], the target named is CD8-MerTK (Ba/F3-CDM cells) (Homo sapiens, UniProt Q12866). Description: In Cell MER Kinase Assay Using BaF3 Cellular System. Type of assay: cell-based. Conditions: Ba/F3-CDM proliferation without IL-3, 48 hours, Celltiter-Glo. From the text: CD8-MerTK is a chimeric fusion protein consisting of the extracellular and transmembrane domains of the human CD8α (amino acids 1 to 209) at its N-terminus and the kinase domain and intracellular parts of MerTK (amino acids 521-994) at its C-terminus. To establish an in cell kinase assay for MerTK kinase, the IL-3 dependent Ba/F3 cells of murine lymphoid origin was transfected with CD8-MerTK. The resulting Ba/F3-CDM line was then validated that Ba/F3-CDM cell proliferation is completely dependent on the activity of MerTK kinase activity when growing in the absence of IL-3. For a routine cellular assay, Ba/F3-CDM cells were seeded at 2,000 cells per well in 384-well cell culture plate containing DMEM/10% FBS culture media and incubated for 24 hours before addition of compounds pre-diluted in culture media. Following compound treatment, cells were further incubated for 48 hours and the proliferation was measured. To discriminate a Ba/F3 growth inhibition by a specific inhibition of MerTK kinase following compound treatment vs growth inhibition due to a non-specific unintended cytotoxicity of compounds, we routinely carried out control sets of Ba/F3 cells in parallel that grown in IL3-supplemented growth media. In the presence of IL-3, the proliferation of Ba/F3 is no longer dependent on the MerTK activity. Cell growth and proliferation was measured with Celltiter-Glo™ system (Promega, USA) according to the manufacturer's instruction. The half-maximal growth inhibitory concentration (GI50) value was calculated with Prism6.0 software (GraphPad, USA).
On the technique in general: ATP-based viability assays read luminescence as a measure of living cells.

Assay [3] concerns the target human MER (528-end) (Homo sapiens (Human), UniProt Q12866). Description: HTRF Kinase Activity Biochemical Assay (KinEASE-TK). As to conditions: 10 uM ATP. The method in brief: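 Recombinant human MER (528-end) phosphorylated biotin-TK peptide substrate, 1 h at room temperature. Reaction stopped with detection buffer containing 0.375 nM Eu3+-cryptate anti-TK antibody and 0.062 uM streptavidin-XL665, 1 h further. Activity taken as HTRF ratio 665/620 nm ×10,000, 340 nm excitation.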

Assay [4] deals with BCR fusion to kinase domain of MerTK (Ba/F3-MerTK) (Homo sapiens, UniProt Q12866). Description: In Cell TAM Kinase Assay Using BaF3 Cellular System. Type of assay: cell-based, murine. As to conditions: Ba/F3 BCR-kinase fusion proliferation, 72 hours, Cell Titer Glo; kinase not given; read-out: IC50. In short, it runs like this: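 Ba/F3 murine pro-B cells expressing BCR–MerTK kinase-domain fusion (IL-3 independent), seeded at 1,000 cells/well onto compound and grown 72 h. Viability read by CellTiter-Glo 2.0 luminescence after 30 min at room temperature.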

Bounds are passed on as bounds.

human c-MER catalytic domain, sequence (Q12866 587-858): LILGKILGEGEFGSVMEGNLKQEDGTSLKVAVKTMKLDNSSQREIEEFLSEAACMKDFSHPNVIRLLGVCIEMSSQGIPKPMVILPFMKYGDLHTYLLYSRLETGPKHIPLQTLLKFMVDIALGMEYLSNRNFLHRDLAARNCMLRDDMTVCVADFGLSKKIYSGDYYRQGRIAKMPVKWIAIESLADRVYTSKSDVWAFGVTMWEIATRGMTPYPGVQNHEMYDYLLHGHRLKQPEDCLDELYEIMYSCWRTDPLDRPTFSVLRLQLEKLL
CD8-MerTK (Ba/F3-CDM cells), sequence (Q12866 21-999 limits assumed, stated change not applied): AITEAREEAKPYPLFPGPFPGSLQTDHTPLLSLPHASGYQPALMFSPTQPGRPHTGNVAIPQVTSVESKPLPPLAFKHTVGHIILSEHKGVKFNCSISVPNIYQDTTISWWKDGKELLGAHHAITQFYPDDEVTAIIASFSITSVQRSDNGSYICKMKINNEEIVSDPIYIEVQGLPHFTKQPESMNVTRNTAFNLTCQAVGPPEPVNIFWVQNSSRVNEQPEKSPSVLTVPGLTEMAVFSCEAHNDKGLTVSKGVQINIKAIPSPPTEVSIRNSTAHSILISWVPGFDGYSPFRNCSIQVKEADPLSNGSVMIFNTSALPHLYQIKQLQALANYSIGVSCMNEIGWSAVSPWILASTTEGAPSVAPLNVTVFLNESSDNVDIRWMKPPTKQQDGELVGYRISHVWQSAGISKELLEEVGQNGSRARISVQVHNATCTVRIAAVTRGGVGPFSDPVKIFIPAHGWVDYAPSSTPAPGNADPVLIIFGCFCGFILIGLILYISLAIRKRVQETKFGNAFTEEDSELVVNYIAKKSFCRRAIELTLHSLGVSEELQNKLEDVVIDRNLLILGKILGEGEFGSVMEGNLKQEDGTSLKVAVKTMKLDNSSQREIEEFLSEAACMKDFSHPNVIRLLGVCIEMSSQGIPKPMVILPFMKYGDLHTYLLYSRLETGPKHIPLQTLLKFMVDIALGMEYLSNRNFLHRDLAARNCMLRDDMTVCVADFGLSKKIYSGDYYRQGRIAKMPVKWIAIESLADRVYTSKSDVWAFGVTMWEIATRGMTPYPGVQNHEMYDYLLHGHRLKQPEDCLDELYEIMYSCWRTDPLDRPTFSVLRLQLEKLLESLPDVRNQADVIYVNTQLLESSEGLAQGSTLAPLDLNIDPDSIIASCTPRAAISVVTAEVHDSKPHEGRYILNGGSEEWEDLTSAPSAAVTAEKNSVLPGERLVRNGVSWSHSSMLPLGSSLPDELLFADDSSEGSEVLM
BCR fusion to kinase domain of MerTK (Ba/F3-MerTK), sequence (Q12866 21-999 limits assumed, change not shown): as the sequence (Q12866 21-999 limits assumed, stated change not applied) above
human MER (528-end), sequence (Q12866 528-999 limits assumed): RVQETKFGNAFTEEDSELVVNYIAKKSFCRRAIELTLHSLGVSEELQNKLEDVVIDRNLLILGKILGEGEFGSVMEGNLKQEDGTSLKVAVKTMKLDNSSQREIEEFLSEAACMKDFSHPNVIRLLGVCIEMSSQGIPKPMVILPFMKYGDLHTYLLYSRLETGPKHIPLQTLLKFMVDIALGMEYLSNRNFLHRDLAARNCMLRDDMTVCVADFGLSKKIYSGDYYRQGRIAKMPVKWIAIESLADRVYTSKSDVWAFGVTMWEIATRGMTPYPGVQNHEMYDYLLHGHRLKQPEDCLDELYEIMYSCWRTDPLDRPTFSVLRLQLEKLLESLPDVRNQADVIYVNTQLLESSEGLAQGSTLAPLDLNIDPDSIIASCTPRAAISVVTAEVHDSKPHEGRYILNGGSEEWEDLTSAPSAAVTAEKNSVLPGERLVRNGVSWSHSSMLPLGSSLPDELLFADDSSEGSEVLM

Take `Cn1cc(-c2cnc(N)c(C(=O)N[C@@H]3CCN(C(=O)Oc4ccc5cc(OCC6CCNCC6)ccc5c4)C3)c2)cn1` [Example 303]: the half-maximal inhibitory concentration (IC50) in assay [1] lay in the range of 10 to 100 nM; in assay [2], 500 to 1000 nM.
On to `Cn1cc(-c2cnc(N)c(C(=O)N[C@@H]3CCN(C(=O)Oc4cccc(OCC5CCC(N)CC5)c4)C3)c2)cn1` (stereo partly drawn) [Example 305, 3-(((1R,4R)-4-aminocyclohexyl)methoxy)phenyl (R)-3-(2-amino-5-(1-methyl-1H-pyrazol-4-yl)nicotinamido)pyrrolidine-1-carboxylate], for which the IC50 in assay [1] was 100 to 1000 nM; in assay [2] it was > 1000 nM.
Consider `Cc1cc(-c2ccc(CN3CCN(C)CC3)cc2)ccc1C(=O)N1CC[C@@H](NC(=O)c2cc(-c3cnn(C)c3)cnc2N)C1` [Example 391, (R)-2-amino-5-(1-methyl-1H-pyrazol-4-yl)-N-(1-(3-methyl-4^1-((4-methylpiperazin-1-yl)methyl)-[1,1′-biphenyl]-4-carbonyl)pyrrolidin-3-yl)nicotinamide], for which the IC50 in assay [3] and in assay [2] was > 1000 nM throughout.
In the case of `Cc1cc(C(=O)N2CC[C@@H](NC(=O)c3cc(-c4cnn(C)c4)cnc3N)C2)ccc1-c1ccc(CN2CCN(C)CC2)cc1` [Example 392, (R)-2-amino-5-(1-methyl-1H-pyrazol-4-yl)-N-(1-(2-methyl-4^1-((4-methylpiperazin-1-yl)methyl)-[1,1′-biphenyl]-4-carbonyl)pyrrolidin-3-yl)nicotinamide], the IC50 in assay [3] is 100 to 1000 nM; in assay [2] it was > 1000 nM.
For `Cn1cc(-c2cnc(N)c(C(=O)N[C@@H]3CCN(C(=O)c4ccc(-c5ccc(OCC6CCNCC6)cc5)cc4)C3)c2)cn1` [Example 550], the half-inhibitory concentration (IC50) was 10 to 100 nM in assay [1] and > 1000 nM in assay [2].
As for `Nc1ncc(-c2ccc(N3CCOCC3)nc2)cc1C(=O)N[C@@H]1CCN(C(=O)c2ccc(-c3ccccc3)cc2)C1` [Example 559], the IC50 in assay [3] fell in the range of 10 to 100 nM; in assay [2], 100 to 500 nM.
Take `Nc1cncc(-c2cnc(N)c(C(=O)N[C@@H]3CCN(C(=O)c4ccc(-c5ccc(F)cc5Cl)cc4)C3)c2)c1` [Example 583, (R)-5′,6-diamino-N-(1-(2′-chloro-4′-fluoro-[1,1′-biphenyl]-4-carbonyl)pyrrolidin-3-yl)-[3,3′-bipyridine]-1-5-carboxamide]: the 50% inhibitory concentration (IC50) in assay [1] was < 10 nM; in assay [2], > 1000 nM.
Consider `Nc1ncc(-c2ccccc2C(=O)O)cc1C(=O)N[C@@H]1CCN(C(=O)c2ccc(-c3ccc(F)cc3Cl)cc2)C1` [Example 777, (R)-2-(6-amino-5-((1-(2′-chloro-4′-fluoro-[1,1′-biphenyl]-4-carbonyl)pyrrolidin-3-yl)carbarnoyl)pyridin-3-yl)benzoic acid], for which the IC50 in assay [3] and in assay [2] was > 1000 nM each time.
On to `Cn1cc(-c2cnc(N)c(C(=O)N[C@@H]3CCN(C(=O)c4ccc(Oc5cccc([N+](=O)[O-])c5)cc4)C3)c2)cn1` [Example 829, (R)-2-amino-5-(1-methyl-1H-pyrazol-4-yl)-N-(1-(4-(3-nitrophenoxy)benzoyl)pyrrolidin-3-yl)nicotinamide], for which the IC50 in assay [3] and in assay [4] was > 1000 nM each time.
Take `Cn1cc(-c2cnc(N)c(C(=O)N[C@@H]3CCN(C(=O)c4ccc(Oc5cccc(N)c5)cc4)C3)c2)cn1` [Example 830, (R)-2-amino-N-(1-(4-(3-aminophenoxy)benzoyl)pyrrolidin-3-yl)-5-(1-methyl-1H-pyrazol-4-yl)nicotinamide]: the IC50 was 100 to 1000 nM in assay [3] and > 1000 nM in assay [4].
The matching figures for `Cn1cc(-c2cnc(N)c(C(=O)N[C@@H]3CCN(C(=O)c4ccc(Oc5ccc([N+](=O)[O-])cc5)cc4)C3)c2)cn1` [Example 831, (R)-2-amino-5-(1-methyl-1H-pyrazol-4-yl)-N-(1-(4-(4-nitrophenoxy)benzoyl)pyrrolidin-3-yl)nicotinamide]: 100 to 1000 nM and > 1000 nM.
As for `Cn1cc(-c2cnc(N)c(C(=O)N[C@@H]3CCN(C(=O)c4ccc(Oc5ccc(N)cc5)cc4)C3)c2)cn1` [Example 832, (R)-2-amino-N-(1-(4-(4-aminophenoxy)benzoyl)pyrrolidin-3-yl)-5-(1-methyl-1H-pyrazol-4-yl)nicotinamide], the IC50 in assay [3] and in assay [4] was > 1000 nM in each case.
For `CN(c1ccc(-c2ccc(C(=O)N3CC[C@@H](NC(=O)c4cc(-c5cnn(C)c5)cnc4N)C3)cc2)cc1)c1ccc(N)cc1F` [Example 835, (R)-2-amino-N-(1-(4′-((4-amino-2-fluorophenyl)(methyl)amino)-[1,1′-biphenyl]-4-carbonyl)pyrrolidin-3-yl)-5-(1-methyl-1H-pyrazol-4-yl)nicotinamide], the figures for the IC50 in assay [3] and in assay [4] were 100 to 1000 nM and > 1000 nM, respectively.
Take `Cc1cc(N)ccc1N(C)c1ccc(-c2ccc(C(=O)N3CC[C@@H](NC(=O)c4cc(-c5cnn(C)c5)cnc4N)C3)cc2)cc1` [Example 836, (R)-2-amino-N-(1-(4′-((4-amino-2-methylphenyl)(methyl)amino)-[1,1′-biphenyl]-4-carbonyl)pyrrolidin-3-yl)-5-(1-methyl-1H-pyrazol-4-yl)nicotinamide]: the IC50 in assay [3] is 100 to 1000 nM; in assay [4], > 1000 nM.
On to `CN(c1ccc(-c2ccc(C(=O)N3CC[C@@H](NC(=O)c4cc(-c5cnn(C)c5)cnc4N)C3)cc2)cc1)c1ccc(N)cc1Cl` [Example 837, (R)-2-amino-N-(1-(4′-((4-amino-2-chlorophenyl)(methyl)amino)-[1,1′-biphenyl]-4-carbonyl)pyrrolidin-3-yl)-5-(1-methyl-1H-pyrazol-4-yl)nicotinamide], for which the IC50 in assay [3] was 100 to 1000 nM; in assay [4] it was > 1000 nM.
Taken in the same sequence, the figures for `Cn1cc(-c2cnc(N)c(C(=O)N[C@@H]3CCN(C(=O)c4ccc(OCc5cccc(N)c5)cc4)C3)c2)cn1` [Example 838, (R)-2-amino-N-(1-(4-((3-aminobenzyl)oxy)benzoyl)pyrrolidin-3-yl)-5-(1-methyl-1H-pyrazol-4-yl)nicotinamide] were 100 to 1000 nM and > 1000 nM.
“(R)-2-amino-N-(1 chlorophenyl)carbamoyl)pyrrolidin-3-yl)-5-(1-(1-methylpiperidin-4-yl)-1H-pyrazol-4-yl)nicotinamide [Example 11]”: the IC50 in assay [1] is 10 to 100 nM; in assay [2], > 1000 nM.
Turning to “(R)-2-amino-N-(1-(2-chloro-[1,1′-biphenyl]-4-carbonyl)pyrrolidin-3-yl)-5-(1-methyl-1H-pyrazol-4-yl)nicotinamide [Example 394]”, the IC50 in assay [3] was 100 to 1000 nM; in assay [2], > 1000 nM.
For “(R)-2-amino-N-(1-(2′-chloro-4′-fluoro-[1,1′-biphenyl]-4-carbonyl)pyrrolidin-3-yl)-5-(2-(piperidin-4-ylmethoxy)phenyl)nicotinamide [Example 771]”, the values for the half-maximal inhibitory concentration (IC50) in assay [3] and in assay [4] were 100 to 1000 nM and > 1000 nM, respectively.
On to “(R)-2-amino-N-(1-(2′-chloro-[1,1′-biphenyl]-4-carbonyl)pyrrolidin-3-yl)-5-(4-(4-methylpiperazin-1-yl)phenyl)nicotinamide [Example 570]”, for which the IC50 in assay [1] is < 10 nM; in assay [2], 100 to 500 nM.
Regarding “(R)-2-amino-N-(1-(4′-(4-hydroxyphenoxy)-[1,1′-biphenyl]-4-carbonyl)pyrrolidin-3-yl)-5-(1-methyl-1H-pyrazol-4-yl)nicotinamide [Example 800]”, the figures for the concentration for half-maximal inhibition (IC50) in assay [3] and in assay [4] were 10 to 100 nM and > 1000 nM, respectively.
For the compound “(R)-2-amino-N-(1-((4′-(dimethylamino)-[1,1′-biphenyl]-3-yl)carbamoyl)pyrrolidin-3-yl)-5-(1-methyl-1H-pyrazol-4-yl)nicotinamide [Example 263]”, the results for the concentration for half-maximal inhibition (IC50) in assay [1] and in assay [2] were 10 to 100 nM and > 1000 nM, respectively.
